# Key:
# Chemokine CXCR4 = Chemokine CXCR4 (Homo sapiens, UniProt P61073); assay: radioligand binding (Table S2); conditions: [125I] SDF-1α, Human recombinant Chem-1 cells
# Lck kinase = Lck kinase (Homo sapiens, UniProt P06239); assay: enzyme assay (Table S2); format: biochemical; conditions: ATP + Ulight-PolyGAT (25 nM), LANCE
# [1] = biological target: T1, Serotonin 5-HT transporter (Homo sapiens, UniProt P31645); assay: radioligand binding (Table S2); conditions: [3H] Imipramine, Human recombinant CHO cells
# T1 construct: host or cells: CHO cells
# PDGFRβ kinase = biological target: T2, PDGFRβ kinase (Homo sapiens, UniProt P09619); assay: enzyme assay (Table S2); format: biochemical; conditions: ATP + Ulight-PolyGAT (25 nM), LANCE
# T2 construct: host or cells: insect cells
# Neurotensin NT1 = Neurotensin NT1 (Homo sapiens, UniProt P30989); assay: radioligand binding (Table S2); conditions: [125I] Neurotensin, Human recombinant HEK-293 cells
# Serotonin 5-HT7 = biological target: T3, Serotonin 5-HT7 (Homo sapiens, UniProt P34969); assay: radioligand binding (Table S2); conditions: [3H] LSD, Human recombinant CHO cells
# T3 construct: host or cells: CHO cells
# Adrenergic β1 = Adrenergic β1 (Homo sapiens, UniProt P08588); assay: radioligand binding (Table S2); conditions: read-out: % Inhibition @ 10 µM
# Dopamine D3 = biological target: T4, Dopamine D3 (Homo sapiens, UniProt P35462); assay: radioligand binding (Table S2); conditions: [3H] Methylspiperone, Human recombinant CHO cells
# T4 construct: host or cells: CHO cells
# Dopamine D1 = biological target: T5, Dopamine D1 (Homo sapiens, UniProt P21728); assay: radioligand binding (Table S2); conditions: [3H] SCH 23390, Human recombinant CHO cells
# T5 construct: host or cells: CHO cells
# Opioid κ (KOP) = biological target: T6, Opioid κ (KOP) (Rattus norvegicus, UniProt P34975); assay: radioligand binding (Table S2); conditions: [3H] U 69593, Rat recombinant CHO cells
# T6 construct: host or cells: CHO cells
# [2] = tested on: Calcium Ca2+ channel (L-dihydropyridine site); assay: radioligand binding (Table S2); conditions: [3H] Nitrendepine, Rat cerebral cortex
# COX1 = biological target: T7, COX1 (Homo sapiens, UniProt P23219); assay: enzyme assay (Table S2); format: biochemical; conditions: Arachidonic acid (3 µM) + ADHP, Fluorimetry
# T7 construct: Eurofins (assay provider)
# Serotonin 5-HT6 = biological target: T8, Serotonin 5-HT6 (Homo sapiens, UniProt P50406); assay: radioligand binding (Table S2); conditions: [3H] LSD, Human recombinant CHO cells
# T8 construct: host or cells: CHO cells
# Vasopressin V1B = biological target: T9, Vasopressin V1B (Homo sapiens, UniProt P47901); assay: functional assay, intracellular [Ca2+], RBL cells (Table S2); format: cell-based; conditions: read-out: % inhibition of reference agonist response @ 10 µM (antagonist effect), Vasopressin (5 nM)
# T9 construct: expressed in transfected cells; host or cells: RBL cells
# [3] = biological target: T10, Glutamate, metabotropic, mGlu5 (Homo sapiens, UniProt P41594); assay: radioligand binding (Table S2); conditions: [3H] Quisqualic acid, Human recombinant CHO-K1 cells
# T10 construct: host or cells: CHO-K1 cells
# Melatonin MT2 (ML1B) = biological target: T11, Melatonin MT2 (ML1B) (Homo sapiens, UniProt P49286); assay: radioligand binding (Table S2); conditions: [125I] 2-iodomelatonin, Human recombinant CHO cells
# T11 construct: host or cells: CHO cells
# Potassium channel KATP = assay: radioligand binding (Table S2); conditions: [3H] Glibenclamide, Rat cerebral cortex
# PDE4D2 = PDE4D2 (Homo sapiens, UniProt Q08499); assay: enzyme assay (Table S2); format: biochemical; conditions: [3H]cAMP + cAMP (0.5 µM), Scintillation counting
# Melanocortin MC4 = biological target: T12, Melanocortin MC4 (Homo sapiens, UniProt P32245); assay: radioligand binding (Table S2); conditions: [125I] NDP-α-MSH, Human recombinant CHO cells
# T12 construct: host or cells: CHO cells
# [4] = biological target: T13, myc-tagged human B2 receptor (Homo sapiens, UniProt P30411); assay: antibody internalization assay, HEK 293a cells; format: cell-based; conditions: BK 100 nM; antagonist 1 nM to 1 μM, 15 min before BK
# T13 construct: expressed in transfected cells
# Experimental: B2 receptor-mediated transport of immune complexes constructed at the cell surface was previously reported ([Bawolak et al., 2011]). Intact HEK 293a cells stably expressing the N-terminally myc-tagged B2 receptor construction (human sequence, [Charest-Morin et al., 2015]) were treated with the monoclonal anti-myc antibody (clone 4A6) conjugated with AlexaFluor-488 (Millipore, dilution 1:500) added to the culture medium. Cells were further incubated at 37°C. Without rinsing, a selected antagonist or their DMSO vehicle was added 5 min later, and BK (100 nM) or its saline vehicle 15 min later. After an additional 30 min incubation period at 37°C, cells were rinsed 3 times with Hank's balanced salt solution (Multicell Wisent, St. Bruno, Canada) and photographed in transmission and epifluorescence using an Olympus BX51 microscope coupled to a CoolSnap HQ digital camera (filters for AlexaFluor 488: excitation 460–500 nm, emission 510–560 nm).
# Thyroid hormone = assay: radioligand binding (Table S2); conditions: [125I] Triiodothyronine, Rat liver
# Histamine H4 = biological target: T14, Histamine H4 (Homo sapiens, UniProt Q9H3N8); assay: radioligand binding (Table S2); conditions: [3H] Histamine, Human recombinant HEK-293 cells
# T14 construct: host or cells: HEK-293 cells
# [5] = biological target: T15, Cysteinyl leukotriene receptor CysLT2 (Homo sapiens, UniProt Q9NS75); assay: radioligand binding (Table S2); conditions: [3H] LTD4, Human recombinant HEK-293 cells
# T15 construct: host or cells: HEK-293 cells
# in vitro = conditions: human, Caco-2
# Neurokinin NK3 = biological target: T16, Neurokinin NK3 (Homo sapiens, UniProt P29371); assay: radioligand binding (Table S2); conditions: [3H] SR 142801, Human recombinant CHO cells
# T16 construct: host or cells: CHO cells
# T16 sequence (P29371 1-465): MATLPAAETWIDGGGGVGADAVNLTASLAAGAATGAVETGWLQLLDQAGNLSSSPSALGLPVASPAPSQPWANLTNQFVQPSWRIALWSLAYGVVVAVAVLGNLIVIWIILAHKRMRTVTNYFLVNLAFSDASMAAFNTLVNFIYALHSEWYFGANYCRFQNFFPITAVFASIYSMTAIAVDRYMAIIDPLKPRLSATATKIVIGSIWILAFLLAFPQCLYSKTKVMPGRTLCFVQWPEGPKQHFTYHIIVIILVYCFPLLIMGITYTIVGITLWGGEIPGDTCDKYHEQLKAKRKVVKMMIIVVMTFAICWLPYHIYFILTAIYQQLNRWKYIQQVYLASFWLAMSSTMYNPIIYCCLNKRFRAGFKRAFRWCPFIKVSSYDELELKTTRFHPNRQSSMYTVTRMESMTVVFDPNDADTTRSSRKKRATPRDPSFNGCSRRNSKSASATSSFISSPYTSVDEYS
# T6 sequence (P34975 whole entry): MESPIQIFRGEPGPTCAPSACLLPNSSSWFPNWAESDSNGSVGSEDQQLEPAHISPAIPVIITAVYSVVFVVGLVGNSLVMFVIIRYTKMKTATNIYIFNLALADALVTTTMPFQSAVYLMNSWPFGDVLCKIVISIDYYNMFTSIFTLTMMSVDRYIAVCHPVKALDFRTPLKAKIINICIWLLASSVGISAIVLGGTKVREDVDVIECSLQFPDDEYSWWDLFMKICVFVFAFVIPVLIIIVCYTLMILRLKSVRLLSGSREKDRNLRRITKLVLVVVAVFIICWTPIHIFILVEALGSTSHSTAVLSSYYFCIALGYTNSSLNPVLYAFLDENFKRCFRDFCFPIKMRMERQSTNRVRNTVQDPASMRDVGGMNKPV
# T12 sequence (P32245 whole entry): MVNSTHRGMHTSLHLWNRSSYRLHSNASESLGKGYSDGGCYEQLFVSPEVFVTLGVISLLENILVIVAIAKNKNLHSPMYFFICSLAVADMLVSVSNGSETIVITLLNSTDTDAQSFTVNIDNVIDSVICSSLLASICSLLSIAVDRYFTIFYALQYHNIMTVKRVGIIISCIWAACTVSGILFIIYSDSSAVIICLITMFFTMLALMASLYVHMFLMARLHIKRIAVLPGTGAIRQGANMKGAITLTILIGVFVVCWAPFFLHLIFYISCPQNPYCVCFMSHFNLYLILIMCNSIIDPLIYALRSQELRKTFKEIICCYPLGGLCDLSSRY
# T13 sequence (P30411 whole entry): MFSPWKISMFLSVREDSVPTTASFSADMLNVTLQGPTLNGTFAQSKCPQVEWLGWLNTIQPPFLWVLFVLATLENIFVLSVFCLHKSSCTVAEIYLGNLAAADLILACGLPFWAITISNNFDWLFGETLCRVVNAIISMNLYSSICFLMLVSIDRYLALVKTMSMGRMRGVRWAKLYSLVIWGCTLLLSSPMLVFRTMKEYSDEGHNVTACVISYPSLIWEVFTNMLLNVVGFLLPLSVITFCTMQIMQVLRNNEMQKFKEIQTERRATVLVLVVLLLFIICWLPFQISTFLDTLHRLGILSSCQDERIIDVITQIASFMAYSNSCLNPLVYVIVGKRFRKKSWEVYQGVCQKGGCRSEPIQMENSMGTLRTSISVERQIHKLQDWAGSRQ
# T2 sequence (P09619 33-1106): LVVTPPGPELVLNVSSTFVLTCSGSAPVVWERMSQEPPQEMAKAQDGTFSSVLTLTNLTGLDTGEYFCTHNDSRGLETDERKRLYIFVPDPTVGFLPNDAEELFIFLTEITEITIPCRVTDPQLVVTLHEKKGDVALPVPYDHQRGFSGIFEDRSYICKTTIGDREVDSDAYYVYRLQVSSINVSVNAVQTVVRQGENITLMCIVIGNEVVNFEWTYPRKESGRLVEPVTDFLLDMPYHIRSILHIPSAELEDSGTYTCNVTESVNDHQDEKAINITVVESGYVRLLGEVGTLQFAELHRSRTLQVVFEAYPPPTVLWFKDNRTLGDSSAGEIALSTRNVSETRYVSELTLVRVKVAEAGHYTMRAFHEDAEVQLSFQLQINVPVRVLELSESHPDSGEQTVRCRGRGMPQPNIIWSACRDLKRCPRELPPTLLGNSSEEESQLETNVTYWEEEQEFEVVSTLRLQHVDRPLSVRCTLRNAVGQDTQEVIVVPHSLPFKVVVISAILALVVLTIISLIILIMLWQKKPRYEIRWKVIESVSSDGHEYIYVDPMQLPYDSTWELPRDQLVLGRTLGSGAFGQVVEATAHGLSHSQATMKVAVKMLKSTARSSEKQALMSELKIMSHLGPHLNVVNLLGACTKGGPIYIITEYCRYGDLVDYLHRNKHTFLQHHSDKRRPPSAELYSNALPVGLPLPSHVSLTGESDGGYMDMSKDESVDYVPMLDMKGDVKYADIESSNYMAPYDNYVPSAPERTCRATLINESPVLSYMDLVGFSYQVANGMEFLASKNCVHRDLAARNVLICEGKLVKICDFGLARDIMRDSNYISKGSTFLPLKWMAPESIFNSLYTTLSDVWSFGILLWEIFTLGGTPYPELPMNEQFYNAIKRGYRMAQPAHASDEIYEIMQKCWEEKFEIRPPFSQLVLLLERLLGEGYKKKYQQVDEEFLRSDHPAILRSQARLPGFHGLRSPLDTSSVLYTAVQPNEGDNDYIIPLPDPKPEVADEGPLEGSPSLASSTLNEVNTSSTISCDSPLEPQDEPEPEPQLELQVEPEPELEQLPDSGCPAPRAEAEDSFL
# Chain of Adrenergic β1 (P08588 whole entry): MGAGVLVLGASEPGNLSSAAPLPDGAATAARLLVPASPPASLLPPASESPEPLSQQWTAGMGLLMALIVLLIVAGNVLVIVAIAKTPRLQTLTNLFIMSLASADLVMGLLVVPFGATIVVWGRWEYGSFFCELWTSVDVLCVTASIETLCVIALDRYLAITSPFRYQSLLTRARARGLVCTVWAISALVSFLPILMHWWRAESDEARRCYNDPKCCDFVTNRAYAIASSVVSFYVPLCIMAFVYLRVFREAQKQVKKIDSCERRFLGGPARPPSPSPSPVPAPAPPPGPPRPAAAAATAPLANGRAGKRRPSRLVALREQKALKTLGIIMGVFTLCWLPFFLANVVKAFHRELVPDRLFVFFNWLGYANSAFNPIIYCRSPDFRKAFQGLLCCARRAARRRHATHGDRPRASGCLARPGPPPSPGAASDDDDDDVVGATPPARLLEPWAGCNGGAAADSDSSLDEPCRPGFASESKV
# T7 sequence (P23219 24-599): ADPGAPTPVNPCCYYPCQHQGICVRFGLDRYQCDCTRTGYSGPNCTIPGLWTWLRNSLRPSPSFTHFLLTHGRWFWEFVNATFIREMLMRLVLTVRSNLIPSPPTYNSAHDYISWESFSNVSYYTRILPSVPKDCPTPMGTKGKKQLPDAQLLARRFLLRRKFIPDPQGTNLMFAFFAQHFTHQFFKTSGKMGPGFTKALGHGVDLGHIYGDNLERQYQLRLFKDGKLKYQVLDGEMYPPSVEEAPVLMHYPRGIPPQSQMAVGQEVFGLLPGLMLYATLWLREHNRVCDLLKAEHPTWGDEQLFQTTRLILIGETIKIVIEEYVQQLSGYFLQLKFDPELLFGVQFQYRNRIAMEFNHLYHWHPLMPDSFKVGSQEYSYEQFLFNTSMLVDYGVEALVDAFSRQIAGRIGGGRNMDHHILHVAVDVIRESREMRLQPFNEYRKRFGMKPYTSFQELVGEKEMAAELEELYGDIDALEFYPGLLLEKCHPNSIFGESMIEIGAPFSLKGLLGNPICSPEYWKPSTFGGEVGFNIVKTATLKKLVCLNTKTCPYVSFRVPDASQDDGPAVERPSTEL
# Chain of PDE4D2 (Q08499 303-809 limits assumed): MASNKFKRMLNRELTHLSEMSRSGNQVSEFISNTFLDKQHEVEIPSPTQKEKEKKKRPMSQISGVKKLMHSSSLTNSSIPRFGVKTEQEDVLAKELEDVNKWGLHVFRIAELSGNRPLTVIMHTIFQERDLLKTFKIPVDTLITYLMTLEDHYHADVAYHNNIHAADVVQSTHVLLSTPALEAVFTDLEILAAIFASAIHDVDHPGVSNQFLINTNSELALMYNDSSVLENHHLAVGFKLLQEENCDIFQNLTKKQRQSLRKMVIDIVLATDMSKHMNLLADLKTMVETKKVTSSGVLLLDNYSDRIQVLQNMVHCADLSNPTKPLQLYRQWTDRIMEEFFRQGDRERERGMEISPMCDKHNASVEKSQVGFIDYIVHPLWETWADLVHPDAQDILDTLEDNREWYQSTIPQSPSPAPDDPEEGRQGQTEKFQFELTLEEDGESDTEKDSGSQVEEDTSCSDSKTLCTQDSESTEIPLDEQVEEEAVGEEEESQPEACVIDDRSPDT
# T4 sequence (P35462 whole entry): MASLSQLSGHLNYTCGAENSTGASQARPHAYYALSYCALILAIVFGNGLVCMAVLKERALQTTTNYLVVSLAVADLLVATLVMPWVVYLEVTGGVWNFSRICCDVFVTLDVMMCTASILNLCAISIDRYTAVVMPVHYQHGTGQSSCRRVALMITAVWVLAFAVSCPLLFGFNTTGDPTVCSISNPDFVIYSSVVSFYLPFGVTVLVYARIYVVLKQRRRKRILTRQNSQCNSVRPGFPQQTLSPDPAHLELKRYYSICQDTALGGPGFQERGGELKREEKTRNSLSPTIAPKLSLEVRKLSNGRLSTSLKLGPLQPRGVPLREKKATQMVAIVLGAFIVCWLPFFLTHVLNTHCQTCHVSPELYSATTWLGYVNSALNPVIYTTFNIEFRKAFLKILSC
# T3 sequence (P34969 whole entry): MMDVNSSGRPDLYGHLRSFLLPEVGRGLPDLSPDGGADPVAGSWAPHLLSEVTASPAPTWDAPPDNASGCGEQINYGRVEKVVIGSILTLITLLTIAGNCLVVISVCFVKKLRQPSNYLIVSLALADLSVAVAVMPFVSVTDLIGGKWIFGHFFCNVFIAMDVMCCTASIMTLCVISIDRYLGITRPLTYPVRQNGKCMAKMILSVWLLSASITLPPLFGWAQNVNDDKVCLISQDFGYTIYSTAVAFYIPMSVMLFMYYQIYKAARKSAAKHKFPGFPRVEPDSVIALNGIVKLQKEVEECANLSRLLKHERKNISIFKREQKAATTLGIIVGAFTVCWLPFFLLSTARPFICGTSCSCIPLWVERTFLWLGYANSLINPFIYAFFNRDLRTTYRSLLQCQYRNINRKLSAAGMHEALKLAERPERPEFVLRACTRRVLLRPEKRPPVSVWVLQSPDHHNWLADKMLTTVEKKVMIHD
# T11 sequence (P49286 whole entry): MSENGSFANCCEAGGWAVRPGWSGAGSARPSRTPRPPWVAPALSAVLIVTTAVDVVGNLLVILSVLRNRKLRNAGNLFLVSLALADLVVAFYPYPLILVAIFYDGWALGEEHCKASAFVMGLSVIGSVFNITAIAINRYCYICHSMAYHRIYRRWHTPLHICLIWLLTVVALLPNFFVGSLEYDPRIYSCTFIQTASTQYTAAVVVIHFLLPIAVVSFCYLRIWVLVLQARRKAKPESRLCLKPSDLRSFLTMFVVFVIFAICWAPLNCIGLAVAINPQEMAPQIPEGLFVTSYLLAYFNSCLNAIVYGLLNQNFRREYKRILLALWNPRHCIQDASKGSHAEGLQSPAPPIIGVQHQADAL
structure (smiles),measurement,setting,value
"Cc1cc(-c2ncnn2C)c2cccc(OCc3c(Cl)cc(F)cc3[C@H](C)NC(=O)COC(F)F)c2n1 [Compound 3, (S)-N-(1-(3-chloro-5-fluoro-2-((2-methyl-4-(1-methyl-1H-1,2,4-triazol-5-yl)quinolin-8-yloxy)methyl)phenyl)ethyl)-2-(difluoromethoxy)acetamide]",inhibition at 10 µM,Chemokine CXCR4,10%
same,inhibition at 10 µM,Lck kinase,9.5%
same,inhibition at 10 µM,[1],-23.4%
same,inhibition at 10 µM,PDGFRβ kinase,-1%
same,inhibition at 10 µM,Neurotensin NT1,4%
same,inhibition at 10 µM,Serotonin 5-HT7,3.3%
same,inhibition at 10 µM,Adrenergic β1,0.3%
same,inhibition at 10 µM,Dopamine D3,4.8%
same,inhibition at 10 µM,Dopamine D1,6.9%
same,inhibition at 10 µM,Opioid κ (KOP),15.4%
same,% Inhibition @ 10 µM,[2],7.3%
same,inhibition at 10 µM,COX1,-9.3%
same,inhibition at 10 µM,Serotonin 5-HT6,-4.5%
same,inhibition at 10 µM,Vasopressin V1B,7.7%
same,inhibition at 10 µM,[3],-8%
same,inhibition at 10 µM,Melatonin MT2 (ML1B),4.8%
same,% Inhibition @ 10 µM,Potassium channel KATP,2.3%
same,inhibition at 10 µM,PDE4D2,4.4%
same,inhibition at 10 µM,Melanocortin MC4,7.1%
same,concentration with clear efficacy in inhibiting BK-induced endocytosis,[4],≥ 100 nM
same,% Inhibition @ 10 µM,Thyroid hormone,6.4%
same,inhibition at 10 µM,Histamine H4,-2.8%
same,inhibition at 10 µM,[5],-6%
same,"Papp A→B at 60 min, 10 µM",in vitro,17.3 ×10⁻⁶ cm/s
same,"Papp B→A at 60 min, 10 µM",in vitro,17.6 ×10⁻⁶ cm/s
same,inhibition at 10 µM,Neurokinin NK3,6.1%

# Source: publication PMC7316994, “In Vitro Pharmacological Profile of a New Small Molecule Bradykinin B2 Receptor Antagonist” (Frontiers in Pharmacology, 2020)
